Data on 3 substances can be found in paper PMC11242946, “Inhibition of ACE2–S Protein Interaction by a Short Functional Peptide with a Boomerang Structure” (Molecules, 2024).

No end group written: not given here.

One series deals with ACE2. Conditions: short peptide; ref not given ("It was reported"); cited from earlier work. The text has this:
To date, only a small number of drug design studies have focused on the SARS-CoV-2 receptor, with a particular emphasis on ACE2 antagonists. Exogenous proteins have disadvantages such as low efficiency in drug delivery and immunogenicity, whereas small-molecule ligands pose limitations such as challenges for manufacturing and increased toxicity. Thus, direct interception of the amino acids of ACE2 could be a simple and effective method. The length of the ACE2-derived peptide (CSNP1) is 16 amino acids.

The target of series [1] is ACE2–S protein interaction (Vero E6 cells) (Chlorocebus aethiops, UniProt Q1LZX8). The experiment in a line: Inhibition of S1 protein-ACE2 interaction, flow cytometry, Vero E6. In kind it is cell-based, monkey. Conditions: K5 1 h pre-incubation, S1 protein 10 μg/mL 1 h. In general terms: In flow cytometry, cells or beads pass a laser one at a time.
Series [2] has as its system Vero E6 cells. The experiment in a line: MTT cytotoxicity, Vero E6. The format is cell-based, monkey. Conditions: 24 h; for cell viability: MTT, % of untreated cells. On the procedure: (§1) Vero E6 and A549 cells were cultured in DMEM containing 10% FBS and 5% CO2 at 37 degrees centigrade (°C). The medium was renewed once every three days. The cells were passaged when they attained confluence.
(§2) The cytotoxicity of the functional peptide was assessed using the MTT test. The test cells were seeded onto 96-well plates and grown overnight. The functional peptide K5 was introduced at concentrations of 0.1, 1, 10, and 100 μM for a 24 h incubation. MTT was then added, and cells were incubated for an additional 2 h. The medium was removed and replaced with 100 μL of DMSO. A measurement of absorbance was conducted at 492 nm (OD492) using a microplate reader (EnSpire, Cleveland, OH, USA). Cells without treatment were set as blanks, and the results are expressed as a percentage of the untreated cells.

Another series concerns A549 cells. The experiment in a line: MTT cytotoxicity, A549. The format is cell-based, human. Conditions: 24 h; for cell viability: MTT, % of untreated cells. On the procedure:
as §1, §2

Series [3] concerns Vero E6 cells. Put plainly: Cellular adsorption of FITC-labeled peptide (fluorescence microscopy). The format is cell-based, monkey. Conditions: cells treated solely with FITC. On the procedure: The cellular adsorption behaviors of K5 were examined using FITC-labeled peptide. Vero E6 cells were incubated in 24-well plates in medium containing 100 μM of FITC-labeled peptide for two different durations: 1 min and 1 h. Subsequently, the cells were washed three times using a PBS solution containing heparin, then stained with DAPI for 30 min. Finally, they were fixed using a 4% PFA solution and then observed using an inverted fluorescence microscope manufactured by Zeiss in Oberkochen, Germany. The control group consisted of cells with only functional peptides added or only FITC added.

In the case of EDLFYQ [SAPs], in the series on ACE2, the IC50 entry is given as “at the mM level”.
As a reminder, the inhibition is the relative decrease from the control value, in per cent. The term cell viability denotes a read-out of living cells in per cent, often relative to untreated cells. KYPAY [K5, KYPAY]: in series [1] (FBS, 10 μM), the MFI reduction worked out at 50%. For the same substance, the MFI decrease is 70% in series [1] (FBS, 100 μM) and “approximately 25%” in series [1] (PBS, 1 μM). In series [1] (Vero C1008, PBS, 100 μM, read-out: MFI decrease (inhibition)), the inhibition at 100 µM stood at 78%. The cell viability in the series on Vero E6 cells [2] (0.1 μM) was 108%; in the series on Vero E6 cells [2] (1 μM) it was 105%; in the series on Vero E6 cells [2] (10 μM), 96%; in the series with Vero E6 cells [2] (100 μM), 94%; with A549 cells (0.1 μM), 93%; with A549 cells (1 μM) it was 100%. In addition, the figures for the cell viability with A549 cells (10 μM) and in the series on A549 cells (100 μM) were 103% and 101%, respectively. In addition, the “change in cell viability / toxicity” value with Vero E6 cells [2] (0.1-100 μM, physiological pH, Vero E6) is on record as “no discernible change in cell viability”; with A549 cells (0.1-100 μM, physiological pH, A549) it was “no discernible change in cell viability”.
As to fluorescein isothiocyanate [FITC], the “cellular adsorption (fluorescence), FITC alone” value in the series with Vero E6 cells [3] is listed as “did not exhibit any fluorescence”.
